Assay [1] concerns N-terminal APP (sAPPα, sAPPβ, APP31/60). Description: In vitro co-immunoprecipitation with recombinant sAPPα/β and APP31/60. In kind it is binding, human. The settings on record: sAPPα 100 nM, apoE4 100 nM, 6KApoEp or 6K at 5 or 10 μM, 1 h, 37° C.; P<0.05 at 10 μM.
A further assay has as its system N-terminus of APP. Description: Co-immunoprecipitation and co-localisation with N-terminal APP in CHO/APPwt cells. The assay is classed as binding, human. Particulars: peptides 10 μM or apoE 10 μg/mL, 2 h; IP with 6H3B5 or pN-APP. How it is done:
Total secreted APP (t-sAPP) and full-length APP (f-APP) in total (inputs), immunoprecipitates and immunodepleted media and lysates were determined by WB using 22C11 or anti-C-terminal APP751/70 antibody (pC-APP), respectively (FIG. 20A left panels and FIG. 20B, top panels). Alternatively, conditioned media and cell lysates were IP with anti-N-terminal APP41/66 antibody (pN-APP) and apoE, or 6KApoEp and ApoEp, was determined using anti-human apoE antibody (ApoE1H4; FIG. 20A, right panels) or 6H3B5, respectively (FIG. 20B, bottom panels). In addition, CHO/APPwt cells were plated at 8 well-chambers at 1×10^5/well for 24 h, treated with 6K, ApoEp or 6KApoEp at 10 μM for 2 h, fixed in 4% paraformaldehyde and stained with 6H3B5 and pN-APP antibodies (FIG. 20C). Alexa Fluor 488 goat anti-mouse IgG (green) was used to detect ApoEp and 6KApoEp, while Alexa Fluor 594 donkey anti-rabbit IgG (red) was used to detect N-terminal APP. DAPI co-staining was done to show nuclear DNA. Homogenates prepared from three TgAPPwt mice (2 female/1 male), two AD patients (AD1[…], AD2[…]) and two normal age-matched control cortices (Ctrl1[…], Ctrl2[…]) were also IP with 6H3B5 or pN-APP and t-APP and apoE were determined using 6E10 and mApoE, respectively (FIGS. 20D-20E).
Total secreted APP in conditioned media and full length APP in cell lysates were then determined by WB using anti-N-terminal (22C11) and anti-C-terminal APP antibodies (pC-APP), respectively. […] In addition, ApoEp and 6KApoEp colocalized with N-terminal APP in cultured CHO/APPwt cells as determined by immunofluorescence staining with 6H3B5 and pN-APP antibodies (FIG. 20C), respectively, confirming that N-terminal APP physically associates with apoE in cell culture. […]
WB analyses were performed as previously described^43,44. […] For all other proteins detected by WB, 10% tris-SDS gels were used. Densitometry analysis was performed as previously described using a FluorS Multiimager with Quantity One™ software 43. […]

Chain of N-terminus of APP (P05067 18-189 limits assumed): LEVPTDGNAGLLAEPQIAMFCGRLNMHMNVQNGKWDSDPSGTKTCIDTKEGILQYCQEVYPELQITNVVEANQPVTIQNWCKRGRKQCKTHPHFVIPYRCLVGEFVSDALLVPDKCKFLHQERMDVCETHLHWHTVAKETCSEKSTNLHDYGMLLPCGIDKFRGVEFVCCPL
Chain of N-terminal APP (sAPPα, sAPPβ, APP31/60) (P05067 18-189 limits assumed): as above

For “6K: 6 lysines control peptide (KKKKKK) [reference compound]”, the “co-immunoprecipitation of sAPPα with apoE4 (apoE4/sAPPα band density ratio)” value in assay [1] is recorded as “but not 6K, reduced co-immunoprecipitation of sAPPα with apoE4”. Besides, the “immunoprecipitation and localization with N-terminal APP” value with N-terminus of APP is “but not 6K, immunoprecipitated and localized with N-terminal APP”.

Source of the values: patent publication US20190185544A1, “COMPOSITIONS AND METHODS OF MODULATING ABETA PROTEIN” (University of South Florida, priority 2016, published 2019).
